From ChEMBL document CHEMBL1201862, “PubChem BioAssay data set” (2004)
Calls of active or inactive are those of the source.

Assays:
Procathepsin L = Procathepsin L (Homo sapiens, UniProt P07711); assay: CTSL1 protease inhibition – biochemical, QFRET, 1536-well, counter-screen for M1/M17 aminopeptidase inhibitor project, dose response (AID 2214)
Aspartyl aminopeptidase = target: T1, Aspartyl aminopeptidase (Plasmodium falciparum 3D7, UniProt Q8I2J3); assay: Counterscreen for inhibitors of M1 and M17 aminopeptidases: QFRET-based biochemical high throughput dose response assay for inhibitors of the Plasmodium falciparum M18 Aspartyl Aminopeptidase (PFM18AAP). [Related PubChem assays: 1619 (Screening assay (M17LAP inhibitors).), 1445 (Screening assay (M1AAP inhibitors).)]
T1 sequence (Q8I2J3 whole entry): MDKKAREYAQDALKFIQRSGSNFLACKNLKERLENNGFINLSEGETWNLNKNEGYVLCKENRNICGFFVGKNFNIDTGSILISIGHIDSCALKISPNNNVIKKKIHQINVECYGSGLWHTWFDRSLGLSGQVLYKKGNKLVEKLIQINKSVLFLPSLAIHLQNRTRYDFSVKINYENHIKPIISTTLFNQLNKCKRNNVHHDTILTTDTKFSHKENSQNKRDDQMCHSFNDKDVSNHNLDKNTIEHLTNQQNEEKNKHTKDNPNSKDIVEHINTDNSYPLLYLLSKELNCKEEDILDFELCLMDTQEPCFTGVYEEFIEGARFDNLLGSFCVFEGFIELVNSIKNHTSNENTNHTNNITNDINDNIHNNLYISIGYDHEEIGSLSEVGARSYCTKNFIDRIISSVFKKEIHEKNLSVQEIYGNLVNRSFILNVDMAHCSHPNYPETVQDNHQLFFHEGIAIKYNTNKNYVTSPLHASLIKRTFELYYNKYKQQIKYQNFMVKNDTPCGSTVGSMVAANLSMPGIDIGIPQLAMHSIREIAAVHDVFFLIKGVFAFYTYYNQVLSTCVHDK

Cytochrome P450 2C19 = Cytochrome P450 2C19 (Homo sapiens, UniProt P33261); assay: Cytochrome panel assay with activity outcomes. Panel member name: p450-cyp2c19 Compounds with AC50 equal or less than 10 uM are considered active; format: functional; details: read-out: AC50
Leucine aminopeptidase = target: T2, Leucine aminopeptidase (Plasmodium falciparum 3D7, UniProt Q8IL11); assay: P. falciparum M17LAP inhibitors, primary screen, biochemical, fluorogenic H-Leu-NHMec substrate, 1536-well (AID 1619); format: functional
T2 sequence (Q8IL11 whole entry): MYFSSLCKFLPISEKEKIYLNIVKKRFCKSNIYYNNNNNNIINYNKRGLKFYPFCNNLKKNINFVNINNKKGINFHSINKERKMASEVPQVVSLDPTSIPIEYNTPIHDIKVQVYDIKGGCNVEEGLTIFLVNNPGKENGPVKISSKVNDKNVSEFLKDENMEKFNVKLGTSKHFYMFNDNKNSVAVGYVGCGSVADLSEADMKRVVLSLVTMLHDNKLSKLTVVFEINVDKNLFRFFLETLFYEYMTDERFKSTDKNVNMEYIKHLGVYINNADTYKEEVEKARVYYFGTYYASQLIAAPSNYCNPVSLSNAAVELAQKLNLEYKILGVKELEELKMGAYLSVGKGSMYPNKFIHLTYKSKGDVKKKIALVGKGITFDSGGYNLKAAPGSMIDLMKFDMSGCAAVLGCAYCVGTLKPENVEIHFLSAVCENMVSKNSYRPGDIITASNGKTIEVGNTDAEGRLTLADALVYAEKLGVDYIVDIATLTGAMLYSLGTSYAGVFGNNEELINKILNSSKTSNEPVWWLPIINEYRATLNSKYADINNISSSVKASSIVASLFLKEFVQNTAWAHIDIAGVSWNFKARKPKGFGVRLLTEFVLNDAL

Cytochrome P450 2C9 = Cytochrome P450 2C9 (Homo sapiens, UniProt P11712)
[1] = target: T3, Mitochondrial peptide methionine sulfoxide reductase (Bos taurus, UniProt P54149); assay: Absorbance-based biochemical high throughput dose response assay for activators of Methionine sulfoxide reductase A (MsrA).; format: functional
T3 sequence (P54149 whole entry): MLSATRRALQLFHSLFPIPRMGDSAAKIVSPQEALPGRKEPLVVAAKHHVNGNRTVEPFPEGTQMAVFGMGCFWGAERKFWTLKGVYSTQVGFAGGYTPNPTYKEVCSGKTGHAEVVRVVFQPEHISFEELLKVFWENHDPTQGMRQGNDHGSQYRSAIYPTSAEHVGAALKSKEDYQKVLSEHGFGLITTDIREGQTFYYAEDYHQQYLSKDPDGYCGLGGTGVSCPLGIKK

Phosphomannomutase 2 = Phosphomannomutase 2 (Homo sapiens, UniProt O15305); assay: Counter screen SAR assay for PMM2 inhibitors via a fluorescence intensity assay. [Related pubchem assays (depositor defined):AID1545, AID1574]
[2] = target: T4, Mannose-6-phosphate isomerase (Homo sapiens, UniProt P34949); assay: phosphomannose isomerase inhibition – biochemical, fluorescence intensity, confirmation (AID 1535)
T4 sequence (P34949 whole entry): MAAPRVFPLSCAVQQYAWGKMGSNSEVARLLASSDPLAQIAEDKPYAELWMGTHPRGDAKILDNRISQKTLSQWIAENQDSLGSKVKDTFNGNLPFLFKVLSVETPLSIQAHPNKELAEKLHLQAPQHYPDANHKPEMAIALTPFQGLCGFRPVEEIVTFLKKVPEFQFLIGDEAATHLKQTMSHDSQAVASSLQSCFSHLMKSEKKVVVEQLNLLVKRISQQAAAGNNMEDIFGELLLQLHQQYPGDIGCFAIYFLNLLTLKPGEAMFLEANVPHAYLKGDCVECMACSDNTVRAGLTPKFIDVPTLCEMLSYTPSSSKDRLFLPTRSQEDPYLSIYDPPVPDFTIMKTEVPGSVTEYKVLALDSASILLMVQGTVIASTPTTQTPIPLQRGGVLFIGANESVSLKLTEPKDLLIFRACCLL

[3] = target: T4, Mannose-6-phosphate isomerase; assay: MPI enzyme activity inhibition – biochemical, fluorescence intensity, coupled assay, primary screen (AID 1209)
NS3 = NS3 (Hepatitis C virus, UniProt A3EZJ3); assay: PubChem AID 2173; parameters: species or system Hepacivirus hominis
[4] = Luminescence Cell-Based/Microorganism Confirmation at Dose of Inhibitors of Trypanosoma cruzi Infection. [Related pubchem assays: 1885, 1968 ]; format: functional
[5] = Luminescence Cell-Based Secondary HTS screen to identify cytotoxic compounds of NIH3T3 cells. [Related pubchem assays: 1885, 1968 ]; format: functional
[6] = Trypanosoma cruzi growth suppression in host cells – NIH3T3 host cells, beta-gal luminescence, confirmation (AID 2044); format: functional, cell-based;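 note: intracellular parasites grown in NIH/3T3 mouse fibroblasts as host cells; luminescent beta-galactosidase reporter signal from transgenic T. cruzi replicating inside host cells; inhibitors lower the luminescence signal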
[7] = target: T5, Short transient receptor potential channel 4 (Mus musculus, UniProt Q9QUQ5); assay: block of DAMGO-driven TRPC4 calcium entry – cell-based, HEK293 TRPC4/mu-opioid, Fluo-4 calcium, dose response (AID 434942); format: functional;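 note: potency of inhibitors blocking the TRPC4 calcium response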
T5 sequence (Q9QUQ5 whole entry): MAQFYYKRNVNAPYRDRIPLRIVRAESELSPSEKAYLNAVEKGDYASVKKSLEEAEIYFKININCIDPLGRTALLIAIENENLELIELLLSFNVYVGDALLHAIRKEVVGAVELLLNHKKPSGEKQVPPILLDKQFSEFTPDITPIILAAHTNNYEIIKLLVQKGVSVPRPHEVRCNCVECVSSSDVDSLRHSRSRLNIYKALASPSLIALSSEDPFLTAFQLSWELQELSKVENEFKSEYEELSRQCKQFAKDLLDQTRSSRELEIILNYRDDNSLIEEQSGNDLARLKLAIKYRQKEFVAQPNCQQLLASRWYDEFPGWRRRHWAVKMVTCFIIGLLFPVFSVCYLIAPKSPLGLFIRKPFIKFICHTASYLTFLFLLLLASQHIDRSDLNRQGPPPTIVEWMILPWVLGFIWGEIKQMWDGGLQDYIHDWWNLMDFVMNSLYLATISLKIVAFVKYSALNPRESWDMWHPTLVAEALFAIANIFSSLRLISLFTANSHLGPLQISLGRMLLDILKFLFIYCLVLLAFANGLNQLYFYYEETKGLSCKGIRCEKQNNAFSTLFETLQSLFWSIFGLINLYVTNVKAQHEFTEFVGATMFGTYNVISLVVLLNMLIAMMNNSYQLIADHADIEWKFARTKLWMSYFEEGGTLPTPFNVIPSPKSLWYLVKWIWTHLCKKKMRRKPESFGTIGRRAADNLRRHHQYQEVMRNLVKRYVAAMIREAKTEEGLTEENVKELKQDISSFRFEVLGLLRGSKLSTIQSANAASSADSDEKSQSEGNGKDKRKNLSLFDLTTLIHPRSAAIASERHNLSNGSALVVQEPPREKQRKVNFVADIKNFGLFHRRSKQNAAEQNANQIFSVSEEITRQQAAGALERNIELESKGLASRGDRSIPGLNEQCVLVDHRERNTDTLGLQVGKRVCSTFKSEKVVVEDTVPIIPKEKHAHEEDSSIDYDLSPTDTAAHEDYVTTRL

[8] = NIH3T3 cell viability loss – ATP luminescence, mouse fibroblasts, counter-screen, dose response (AID 2010); format: functional, cell-based;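 note: cells exposed to compound for about 90 hours before reading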
[9] = antiviral protection against BTV-induced cell death – arbovirus, BSR cells, confirmation (AID 1250); format: functional;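 note: protection from viral cytopathic effect measured as cell viability by ATP luminescence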
[10] = M. tuberculosis H37Rv growth inhibitors, H37Rv strain (AID 1626); format: functional
[11] = cAMP pathway inhibition in counterscreen cell line – TR-FRET cAMP detection, counter-screen for MC4R biased antagonist project, dose response (AID 602305); format: functional, cell-based;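 note: U2OS cells stimulated with forskolin near its EC80 as the cAMP inducer; potency is for inhibition of forskolin-stimulated cAMP signaling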
[12] = A High Throughput Confirmatory Assay used to Identify Novel Compounds that Inhibit Mycobacterium Tuberculosis in the absence of Glycerol.; format: functional
Melanocortin receptor 4 = Melanocortin receptor 4 (Homo sapiens, UniProt P32245); assay: inhibitors of MC4R cAMP signaling – cell-based, TR-FRET, biased antagonists, dose response (AID 602298); format: functional;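 note: antagonist potency against agonist-stimulated cAMP production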
Bcl-2-like protein 10 = target: T6, Bcl-2-like protein 10 (Homo sapiens, UniProt Q9HD36); assay: Concentration-response of Bcl-B inhibitors by biochemical FP with TR3 (AID 1243); format: functional
T6 sequence (Q9HD36 whole entry): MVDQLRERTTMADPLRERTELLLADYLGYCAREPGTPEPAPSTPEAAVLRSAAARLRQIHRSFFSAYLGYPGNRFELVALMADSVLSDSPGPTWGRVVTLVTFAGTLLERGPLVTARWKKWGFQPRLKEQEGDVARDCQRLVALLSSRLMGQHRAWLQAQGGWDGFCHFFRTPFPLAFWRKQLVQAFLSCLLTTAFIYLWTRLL

[13] = Luminescence Cell-Based Dose Confirmation HTS to Identify Activators of 5'UTR Stem-Loop Driven Alpha-Synuclein mRNA Translation in H4 Neuroglioblastoma Cells. [Related pubchem assays: 1829 (Project Summary), 1814 (Primary HTS)]; format: functional
[14] = target: G2/mitotic-specific cyclin-B1 (Homo sapiens, UniProt P14635); assay: Counterscreen assay for inhibitors of Wee1 degradation: dose response cell-based assay to identify inhibitors of cyclin B degradation. [Related pubchem assays: 1410, 1321 ]; format: functional
Wee1-like protein kinase = Wee1-like protein kinase (Homo sapiens, UniProt P30291); assay: Dose Response Cell-based Assay for Inhibitors of Wee1 Degradation. [Related pubchem assays: 1410, 1321 ]; format: functional
[15] = target: T3, Mitochondrial peptide methionine sulfoxide reductase; format: functional
H4 = assay: Luminescence Cell-Based Dose Response HTS to Identify Activators of 5'UTR Stem-Loop Driven Prion Protein mRNA Translation in H4 Neuroglioblastoma Cells. [Related pubchem assays: 1829 (Project Summary), 1814 (Primary HTS)]; format: functional; details: Homo sapiens
[16] = Luminescence Cell-Based Dose Response HTS to Identify Activators of Luciferase Translation or Activity in H4 […] Cells. [Related pubchem assays: 1829 (Project Summary), 1814 (Primary HTS)]; format: functional

Sequence of G2/mitotic-specific cyclin-B1 (P14635 whole entry): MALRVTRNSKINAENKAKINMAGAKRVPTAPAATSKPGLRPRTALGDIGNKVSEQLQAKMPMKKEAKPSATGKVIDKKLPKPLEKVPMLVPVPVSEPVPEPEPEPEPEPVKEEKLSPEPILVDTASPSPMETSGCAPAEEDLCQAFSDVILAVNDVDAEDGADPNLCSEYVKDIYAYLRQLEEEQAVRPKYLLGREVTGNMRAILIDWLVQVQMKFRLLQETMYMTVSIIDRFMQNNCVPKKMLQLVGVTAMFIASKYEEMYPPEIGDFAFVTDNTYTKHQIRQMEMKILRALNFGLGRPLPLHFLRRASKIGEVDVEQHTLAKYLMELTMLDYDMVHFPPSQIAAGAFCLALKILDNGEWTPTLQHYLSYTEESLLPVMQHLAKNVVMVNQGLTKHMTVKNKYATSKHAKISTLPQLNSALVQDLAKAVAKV
Sequence of Phosphomannomutase 2 (O15305 whole entry): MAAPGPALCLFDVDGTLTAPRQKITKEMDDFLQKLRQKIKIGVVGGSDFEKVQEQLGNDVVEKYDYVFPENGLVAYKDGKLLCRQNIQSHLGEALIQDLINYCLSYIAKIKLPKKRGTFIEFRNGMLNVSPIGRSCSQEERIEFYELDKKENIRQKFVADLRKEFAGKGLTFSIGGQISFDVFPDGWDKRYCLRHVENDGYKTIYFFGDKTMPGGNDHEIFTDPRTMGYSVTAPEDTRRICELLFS
Sequence of Cytochrome P450 2C9 (P11712 whole entry): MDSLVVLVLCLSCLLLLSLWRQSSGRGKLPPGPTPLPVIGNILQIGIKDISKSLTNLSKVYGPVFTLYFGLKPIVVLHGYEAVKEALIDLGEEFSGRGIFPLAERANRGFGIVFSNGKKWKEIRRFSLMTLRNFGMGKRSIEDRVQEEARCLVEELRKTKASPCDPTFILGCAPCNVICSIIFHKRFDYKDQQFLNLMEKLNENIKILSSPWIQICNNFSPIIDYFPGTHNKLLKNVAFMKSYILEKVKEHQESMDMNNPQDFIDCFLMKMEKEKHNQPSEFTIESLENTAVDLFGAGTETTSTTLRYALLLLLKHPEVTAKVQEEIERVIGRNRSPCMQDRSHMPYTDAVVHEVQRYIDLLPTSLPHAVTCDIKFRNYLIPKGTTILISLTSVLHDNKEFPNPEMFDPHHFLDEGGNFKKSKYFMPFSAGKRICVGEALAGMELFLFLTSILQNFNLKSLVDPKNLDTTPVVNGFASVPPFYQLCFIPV
Sequence of Procathepsin L (P07711 whole entry): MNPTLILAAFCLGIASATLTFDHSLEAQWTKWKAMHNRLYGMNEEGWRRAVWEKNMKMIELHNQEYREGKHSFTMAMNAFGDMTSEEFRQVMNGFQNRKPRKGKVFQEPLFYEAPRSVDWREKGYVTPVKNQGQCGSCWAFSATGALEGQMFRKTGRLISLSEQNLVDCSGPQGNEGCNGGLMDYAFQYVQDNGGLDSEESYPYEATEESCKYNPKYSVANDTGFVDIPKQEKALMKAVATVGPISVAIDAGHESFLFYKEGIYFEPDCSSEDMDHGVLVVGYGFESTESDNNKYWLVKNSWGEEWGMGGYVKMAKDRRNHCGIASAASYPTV
Sequence of NS3 (A3EZJ3 whole entry): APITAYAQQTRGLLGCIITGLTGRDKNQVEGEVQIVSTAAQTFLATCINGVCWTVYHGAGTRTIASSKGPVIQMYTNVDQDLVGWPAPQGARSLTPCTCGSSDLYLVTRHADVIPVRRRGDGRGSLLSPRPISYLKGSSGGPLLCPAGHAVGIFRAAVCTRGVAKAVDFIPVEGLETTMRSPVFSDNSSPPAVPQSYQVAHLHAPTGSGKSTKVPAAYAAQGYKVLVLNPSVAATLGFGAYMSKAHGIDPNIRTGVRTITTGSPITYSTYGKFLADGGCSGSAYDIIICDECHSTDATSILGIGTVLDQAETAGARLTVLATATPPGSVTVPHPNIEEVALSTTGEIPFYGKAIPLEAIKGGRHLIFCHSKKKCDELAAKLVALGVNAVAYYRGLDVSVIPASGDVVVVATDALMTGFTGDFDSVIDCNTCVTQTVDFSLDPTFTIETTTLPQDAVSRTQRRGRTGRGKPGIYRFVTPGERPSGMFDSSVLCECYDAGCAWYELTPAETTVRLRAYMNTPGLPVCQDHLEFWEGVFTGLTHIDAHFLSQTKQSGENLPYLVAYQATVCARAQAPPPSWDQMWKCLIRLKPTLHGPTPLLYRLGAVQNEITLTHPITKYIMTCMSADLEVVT
Sequence of Wee1-like protein kinase (P30291 whole entry): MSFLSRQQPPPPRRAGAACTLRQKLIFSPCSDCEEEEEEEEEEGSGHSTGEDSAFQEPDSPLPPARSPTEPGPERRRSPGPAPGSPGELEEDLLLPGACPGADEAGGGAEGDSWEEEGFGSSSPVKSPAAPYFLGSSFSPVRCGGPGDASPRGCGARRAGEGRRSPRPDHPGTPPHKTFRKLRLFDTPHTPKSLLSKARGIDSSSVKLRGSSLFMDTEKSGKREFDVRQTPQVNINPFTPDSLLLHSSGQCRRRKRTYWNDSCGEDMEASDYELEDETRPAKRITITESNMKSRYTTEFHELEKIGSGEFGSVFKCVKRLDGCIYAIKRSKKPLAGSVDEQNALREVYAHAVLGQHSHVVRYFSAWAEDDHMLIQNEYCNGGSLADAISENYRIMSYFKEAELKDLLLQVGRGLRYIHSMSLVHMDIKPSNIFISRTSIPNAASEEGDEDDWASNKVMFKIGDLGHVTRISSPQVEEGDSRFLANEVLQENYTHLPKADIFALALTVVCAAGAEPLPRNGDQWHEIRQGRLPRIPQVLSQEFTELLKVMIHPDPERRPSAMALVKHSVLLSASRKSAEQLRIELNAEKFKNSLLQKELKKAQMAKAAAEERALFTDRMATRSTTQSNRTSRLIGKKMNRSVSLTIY
Sequence of Cytochrome P450 2C19 (P33261 whole entry): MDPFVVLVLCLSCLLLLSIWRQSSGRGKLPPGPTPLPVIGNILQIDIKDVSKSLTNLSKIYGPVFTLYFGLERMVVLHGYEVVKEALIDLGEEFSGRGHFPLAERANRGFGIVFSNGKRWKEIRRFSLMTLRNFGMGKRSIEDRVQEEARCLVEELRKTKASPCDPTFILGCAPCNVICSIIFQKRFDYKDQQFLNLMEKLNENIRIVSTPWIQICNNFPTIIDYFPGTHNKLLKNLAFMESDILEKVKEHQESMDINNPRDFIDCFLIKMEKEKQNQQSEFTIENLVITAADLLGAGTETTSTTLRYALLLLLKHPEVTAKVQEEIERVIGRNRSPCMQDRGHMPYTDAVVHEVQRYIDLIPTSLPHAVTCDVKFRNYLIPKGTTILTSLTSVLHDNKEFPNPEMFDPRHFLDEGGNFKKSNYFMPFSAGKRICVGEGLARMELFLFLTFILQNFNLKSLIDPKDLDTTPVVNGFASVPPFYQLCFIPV
Sequence of Melanocortin receptor 4 (P32245 whole entry): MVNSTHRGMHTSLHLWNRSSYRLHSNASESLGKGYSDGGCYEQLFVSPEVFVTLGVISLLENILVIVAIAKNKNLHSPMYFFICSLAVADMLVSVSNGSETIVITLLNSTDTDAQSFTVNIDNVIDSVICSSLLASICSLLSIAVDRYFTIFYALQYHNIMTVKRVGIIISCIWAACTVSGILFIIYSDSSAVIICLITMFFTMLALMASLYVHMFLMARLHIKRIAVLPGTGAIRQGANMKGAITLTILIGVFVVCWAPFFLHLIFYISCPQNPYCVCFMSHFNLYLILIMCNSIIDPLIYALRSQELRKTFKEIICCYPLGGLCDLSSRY

For `COc1ccc(NC(=O)CSC2=NC(=O)CC(C)=N2)cc1`, the IC50 (Procathepsin L) was > 59.6 µM (not active), the IC50 (Aspartyl aminopeptidase) was > 73.5 µM (not active) and the AC50 (Cytochrome P450 2C19) was 15.8 µM (inconclusive). The IC50 (Leucine aminopeptidase) was 3.09 µM (active) and the AC50 (Cytochrome P450 2C9) was 25.1 µM (inconclusive).
In the case of `Sc1n[nH]c(-c2cccc(Br)c2)n1`, the EC50 [1] is reported as > 104 µM (inactive), the IC50 (Phosphomannomutase 2) is reported as > 100 µM (inactive) and the IC50 [2] is reported as 6.15 µM (active). The IC50 [3] was 14.5 µM (active).
For `COc1ccc(OC)c(C2CC(=O)N3CN(c4ccccc4F)CSC3=C2C#N)c1` (stereo not drawn), the IC50 (NS3) was 6.77 µM (active).
For `CC(C)Oc1cccc(C(=O)C2CCCN(Cc3cnn(C(C)C)c3)C2)c1` (stereo not drawn), the EC50 [4] was 68 nM (active), the EC50 [5] was > 195 µM (not active) and the EC50 [6] was < 100 nM (active). The EC50 (cells) was 39 nM (active), the EC50 [7] was 2.11 µM (active) and the EC50 [8] was > 60 µM (not active).
With `CC(C)CCOc1ccc(/C=C2\CCn3c2nc2cc(C(=O)O)ccc2c3=O)cc1` the IC50 [9] was 32.2 µM (active).
In the case of `Nc1cc(O)nc(SCC(=O)Nc2ccccc2-c2ccccc2)n1`, the IC50 [10] is reported as > 100 µM (active).
For `CN1CCN(C(=O)/C=C/c2cn(-c3ccccc3)nc2-c2ccc3c(c2)OCCO3)CC1`, the IC50 [11] was > 64.6 µM (inactive), the IC50 [12] was > 100 µM (active) and the IC50 (Melanocortin receptor 4) was > 64.6 µM (inactive).
For `O=C(O)C1Nc2c(C(=O)N3CCCC3)cccc2C2C=CCC12` (stereo not drawn), the EC50 (Bcl-2-like protein 10) was 4.95 µM (active).
With `COc1cccc(C2=CC(c3cccc(OC)c3OC)n3nnnc3N2)c1` (stereo not drawn) the EC50 [13] was 26.1 µM (active), the EC50 [14] was > 49.7 µM (not active) and the EC50 (Wee1-like protein kinase) was > 49.7 µM (not active). For the same compound, the IC50 [15] was 155 µM (inactive), the EC50 (H4) was 13.1 µM (active) and the EC50 [16] was 17 µM (active).
